Patent publication US8734775B2, “Chemokine derived peptides that bind with chemokine receptor CXCR3 and uses for chronic wound and angiogenesis inhibition treatments” (University of Pittsburgh, priority 2011, dated 2014)

Experiments:
Format in all cases: cell-based, human
[1] = test system: PKA activity in HMEC-1 cells; experiment: PKA activity assay in endothelial cells; conditions: IP-10dp 10 μM
Description: To further investigate the cAMP activation of PKA, a PKA assay experiment was conducted. As above, HMEC-1 cells were grown in complete growth media then further incubated in 0.5% dialyzed FBS MCDB 131 media for 24 hours. The cells were then stimulated with forskolin ([…]), and/or combinations of VEGF (100 ng/ml), IP-10 (200 ng/ml), and/or IP-10dp (10 μM) for 15, 30 and 60 minutes. The cells were lysed with an ice-cold hypotonic solution (50 mM Tris pH 7.4, 1 mM EDTA, 10 mg/ml aprotinin and 1 mM PMSF). The cells were incubated on ice for 30 minutes then centrifuged to remove the cell membranes. PKA activity was measured using a commercially available cAMP dependent protein kinase kit (Non-Radioactive Detection kit, from Promega Corp., of Madison, Wis.) according to the manufacturer's protocol. Absorbance was read at 570 nm with the solubilization buffer serving as a blank.

HMEC-1 cells = experiment: Tube formation on growth factor reduced Matrigel
Description: To determine whether the IP-10 peptide is able to inhibit tube formation, HMEC-1 cells were grown on growth factor reduced (“GFR”) Matrigel in the presence of VEGF165, IP-10 and/or IP-10dp and the cultures inspected and compared to asses the relative degree of tube formation according to the following procedure. GFR Matrigel 10 μl/well (μ-angiogenesis slide, Ibidi), was incubated for 15 minutes at 37° C. HMEC-1 cells (10,000 cells/well) were re-suspended in 1.0% FBS MDCB131 media containing VEGF (75 ng/ml), IP-10 (300 ng/ml) and IP-10dp (10 μM) and or anti-CXCR3 neutralizing antibody. Treated cells (1×10^4 cells/well) were added to 24-well culture plates coated with growth factor reduced Matrigel and incubated for 24 hours at 37° C. to allow tube formation.
The cells cultures were then imaged for tube formation using an Olympus IX70 microscope equipped with a Hammastu camera using MetaView™ software (Universal Imaging Corporation, Downington, Pa.). FIG. 4A is a grid of six labeled black and white photographs taken at this 24 hour point with 4× magnification showing the following representative cell cultures from upper left to lower right: a control culture having no treatment, a culture having treatment only with IP-10, a culture having treatment only with IP-10dp, a culture having treatment only with VEGF, a culture having treatment with combined VEGF and IP-10, and a culture having treatment with combined VEGF and IP-10dp.
Analysis of tube formation was preformed using MetaMorph (obtained from Universal Imaging Corporation, Downington, Pa.), and the results reported in the graph of FIG. 4 are shown as a percent of the no-treatment control. The data reported therein are of N=6 and normalized to no treatment (average±SEM), with *P<0.05. As shown by the graph, IP-10 peptide is able to inhibit tube formation. In particular, after incubation for 24 hours, the HMEC-1 cells cultures were able to form tubes in the presence or absence of VEGF165 (compare the photographic images in FIG. 4A).

[2] = test system: HMEC-1 cells treated with CXCR3 siRNA; experiment: Tube formation in CXCR3 siRNA-treated cells; conditions: CXCR3 knockdown; concentrations as in Experiment 3
Description: In the various experiments detailed below, unless otherwise noted, siRNA down regulation of CXCR3 was accomplished according to the following procedure. HMEC-1 cells were plated at 5.5×10^5 cells/60 mm dish and incubated overnight. The cells were 90-95% confluent. Cells were transfected with 4 μM siRNA (2 μM Sigma, 2 μM Santa Cruz) using Dharamacon #4 transfection reagent. The cells were incubated for 24 hours, and then placed in EGM-2MV media for 48 hours. The cells were then transfected again as indicated above. After 48 hours of incubation in EGM-2MV media the cells were then used for experimentation.
In the various experiments described below, to the extent not otherwise noted, CXCR3 siRNA transfection was preformed according to the procedure as previously described by Koh et al. (“Methods in Enzymology,” 2008, vol 443, p. 84), and summarized briefly as follows. HMEC-1 cells were plated in 6 well tissue culture plate at 4.0×10^5 cells/well in complete MCDB131 media and incubated overnight. The cells were ˜75% confluent. The media was removed and replaced with serum free Opti-Mem and incubated for 30 minutes. Dharmafect #4 was added to Opti-Mem to a final concentration of 2.5% (final volume […]) then incubated for 5 minutes at room temp. In parallel, CXCR3 siRNA was diluted in Opti-Mem to a final concentration of […] then incubated for 5 minutes at room temp. […]

PESKAIKNLLKAVSKEMSKRSP (IP-10dp; listed as Homo sapiens) [synthetic fragment of IP-10 comprising residues 78-98, the C-terminal α-helical domain]
fold increase in PKA assay [1]: 2-3 fold | PKA activity in comparison to VEGF and untreated cells ([1]; 15, 30 and 60 minutes): significant increase in PKA activity | tubes formed in the presence of VEGF165 (HMEC-1 cells; IP-10dp 10 μM plus VEGF 75 ng/ml, 24 hours): significant reduction | tubes formed compared to control (HMEC-1 cells; IP-10dp 10 μM, no VEGF, 24 hours): significant reduction in tubes formed | inhibition of tube formation compared with full length IP-10 (HMEC-1 cells; presence and absence of VEGF, IP-10dp 10 μM vs IP-10 300 ng/ml): slightly better | formation of tubes in CXCR3 siRNA-treated cells [2]: did not show a significant difference
